According to patent US5348743A, “Anti-pathogenically effective compositions comprising lytic peptides and hydrolytic enzymes” (priority 1993, dated 1994):
Like-named read-outs stand apart in the source and are kept apart here.

Experiments:
[1] = system: beta-1,3-glucanase; conditions: Burri (1989), average of five ethylene treatments; cited from earlier work
[2] = system: chitinase; conditions: Burri (1989), average of five ethylene treatments; cited from earlier work
[3] = system: chitinase; format: biochemical, Phaseolus vulg. L. cv. saxa
Protocol: (§1) Seeds of Phaseolus vulg. L. cv. saxa were grown in vermiculite under a 16 hr light: 8 hr dark regime at 20° C. Twelve day old bean plants were incubated in air-tight plastic chambers with a volume of 0.2 m^3. Control plants were incubated in identical chambers in ethylene-free air. After 48 hours, the primary leaves were harvested and frozen at -20° C.
(§2) 0.6597 kg frozen leaf tissue was homogenized in 0.1M sodium citrate buffer at pH 5.0 (2 ml×g^-1 fresh weight) with a Turmix homogenizer at top speed. The homogenate was centrifuged (25 Min., 11000 g) and 100 ml of the supernatant were used as a crude enzyme preparation. The proteins in the remaining crude extract were precipitated by adding ammonium sulfate to 95% saturation. After centrifugation (30 min., 11000 g) the sediment was redissolved in 100 mM Tris/HCl pH 8.0 and dialyzed against 5 mM Tris/HCl pH 8.0.
Chitinase activity was measured as described by Molano et al. (1977).

[4] = system: beta-1,3-glucanase; format: biochemical, Phaseolus vulg. L. cv. saxa
Protocol: as §1, §2
Beta-1,3-glucanase activity was measured as described by Dygert et al., Analyt. Biochem., 13:367-374 (1965).

[5] = system: S. nodorum; assay: Inhibitory effect of lytic peptides and hydrolytic enzymes against S. nodorum (microtiter plates, liquid pea medium, absorbance at 595 nm); format: cell-based, Septoria nodorum
Protocol: Microtiter plates were selected to investigate the inhibitory effect of lytic peptides and hydrolytic enzymes against S. nodorum. Test substances were added to 90 ul liquid pea medium which had been previously inoculated with 2.0×10^4 spores/ml medium of the test pathogen to give a final volume of 100 ul. The blank value of the test substances were determined by adding them to uninoculated liquid pea medium. The plates were evaluated after incubation in a wet chamber at 23° C. on a shaker in the dark for 48 hours.
a. Hydrolytic enzymes were purified from ethylene-treated bean leaves by the procedure described in Example 1.
b. Lytic peptides: The following antimicrobial peptides were tested at 20 ppm, 60 ppm and 200 ppm concentrations:
d. Combinations of test substances: Table 3 illustrates the composition of test solutions which were tested in duplicate/triplicate samples.
e. Evaluation: The growth of the pathogen was recorded by measuring the absorbance of the medium at 595 nm. The average of duplicate/triplicate samples was calculated and the corresponding enzyme blank was subtracted to give the net absorption of the growing mycelium. The inhibitory effect of the test substances used was determined by calculating the growth of the pathogen as a percentage of water control.

In the case of `C=C` [ethylene], the “absolute beta-1,3-glucanase activity” value [1] is listed as 76.00±6.77 nkatal/ml extract, the absolute chitinase activity [2] is listed as 88.86±6.65 nkatal/ml extract and the Specific chitinase activity [3] is listed as 45.95. The absolute chitinase activity [3] was 54.71, the “induction of chitinase in bean leaves” value [3] was “strong induction” and the “Specific beta-1,3-glucanase activity” value [4] was 28.72. For the same molecule, the “absolute beta-1,3-glucanase activity” value [4] was 34.21 and the “induction of beta-1,3-glucanase in bean leaves” value [4] was “strong induction”.

In the case of “GIGKFLHSAK KFGKAFVGI MNS [SYNTHETIC PEPTIDE NO. 3]”, the “FUNGAL GROWTH IN PERCENTAGE OF CONTROL” value ([5]; test solution 5: lytic peptide 20 ppm alone, 48 hours, 23° C.) was 80.35 percentage of control, the “FUNGAL GROWTH IN PERCENTAGE OF CONTROL” value ([5]; test solution 6: lytic peptide 60 ppm alone, 48 hours, 23° C.) was 73.51 percentage of control and the “FUNGAL GROWTH IN PERCENTAGE OF CONTROL” value ([5]; test solution 7: lytic peptide 200 ppm alone, 48 hours, 23° C.) was 65.96 percentage of control. The “FUNGAL GROWTH IN PERCENTAGE OF CONTROL” value ([5]; test solution 12: lytic peptide 20 ppm + chitinase 1/10 c) was 68.42 percentage of control, the “FUNGAL GROWTH IN PERCENTAGE OF CONTROL” value ([5]; test solution 13: lytic peptide 60 ppm + chitinase 1/10 c) was 63.51 percentage of control and the “FUNGAL GROWTH IN PERCENTAGE OF CONTROL” value ([5]; test solution 14: lytic peptide 200 ppm + chitinase 1/10 c) was 61.75 percentage of control. For the same molecule, the “FUNGAL GROWTH IN PERCENTAGE OF CONTROL” value ([5]; test solution 15: lytic peptide 20 ppm + chitinase 1/100 c) was 77.89 percentage of control, the “FUNGAL GROWTH IN PERCENTAGE OF CONTROL” value ([5]; test solution 16: lytic peptide 60 ppm + chitinase 1/100 c) was 71.58 percentage of control and the “FUNGAL GROWTH IN PERCENTAGE OF CONTROL” value ([5]; test solution 17: lytic peptide 200 ppm + chitinase 1/100 c) was 64.21 percentage of control. The “FUNGAL GROWTH IN PERCENTAGE OF CONTROL” value ([5]; test solution 18: lytic peptide 20 ppm + beta-1,3-glucanase 1/10 c) was 46.67 percentage of control, the “FUNGAL GROWTH IN PERCENTAGE OF CONTROL” value ([5]; test solution 19: lytic peptide 60 ppm + beta-1,3-glucanase 1/10 c) was 30.88 percentage of control and the “FUNGAL GROWTH IN PERCENTAGE OF CONTROL” value ([5]; test solution 20: lytic peptide 200 ppm + beta-1,3-glucanase 1/10 c) was 27.89 percentage of control. For the same molecule, the “FUNGAL GROWTH IN PERCENTAGE OF CONTROL” value ([5]; test solution 21: lytic peptide 20 ppm + beta-1,3-glucanase 1/100 c) was 65.26 percentage of control, the “FUNGAL GROWTH IN PERCENTAGE OF CONTROL” value ([5]; test solution 22: lytic peptide 60 ppm + beta-1,3-glucanase 1/100 c) was 63.51 percentage of control and the “FUNGAL GROWTH IN PERCENTAGE OF CONTROL” value ([5]; test solution 23: lytic peptide 200 ppm + beta-1,3-glucanase 1/100 c) was 53.68 percentage of control. For the same molecule, the “FUNGAL GROWTH IN PERCENTAGE OF CONTROL” value ([5]; test solution 24: lytic peptide 20 ppm + chitinase 1/10 c + beta-1,3-glucanase 1/10 c) was 9.47 percentage of control, the “FUNGAL GROWTH IN PERCENTAGE OF CONTROL” value ([5]; test solution 25: lytic peptide 60 ppm + chitinase 1/10 c + beta-1,3-glucanase 1/10 c) was 8.42 percentage of control and the “FUNGAL GROWTH IN PERCENTAGE OF CONTROL” value ([5]; test solution 26: lytic peptide 200 ppm + chitinase 1/10 c + beta-1,3-glucanase 1/10 c) was 3.86 percentage of control. For the same molecule, the “FUNGAL GROWTH IN PERCENTAGE OF CONTROL” value ([5]; test solution 27: lytic peptide 20 ppm + chitinase 1/100 c + beta-1,3-glucanase 1/100 c) was 40.7 percentage of control, the “FUNGAL GROWTH IN PERCENTAGE OF CONTROL” value ([5]; test solution 28: lytic peptide 60 ppm + chitinase 1/100 c + beta-1,3-glucanase 1/100 c) was 36.49 percentage of control and the “FUNGAL GROWTH IN PERCENTAGE OF CONTROL” value ([5]; test solution 29: lytic peptide 200 ppm + chitinase 1/100 c + beta-1,3-glucanase 1/100 c) was 31.23 percentage of control.
